Data published in patent publication US20040053928A1, “Quinoline derivatives as antibacterials” (priority 2000, published 2004).
Structures can show the parent of a compound that is named as a salt.

assay: MIC of test compounds against various organisms; type: cell-based; conditions: against one or more of the above range of gram positive and gram negative bacteria
Description: The MIC (μg/ml) of test compounds against various organisms was determined:
S. aureus Oxford, S. aureus WCUH29, S. pneumoniae 1629, S. pneumoniae N1387, S. pneumoniae ERY 2, E. faecalis 1, E. faecalis 7, H. influenzae Q1, H. influenzae NEMC1, M. catarrhalis 1502, E. coil 7623, E.coli 120.

MIC	Compound
≤ 0.25 mg/L	CCOC(=O)C1CN(C[C@H](O)c2ccnc3ccc(OC)cc23)CCC1NCC(=O)Nc1ccccc1 (mixture of isomers) [Example 2, cis-2-{1-[2-(R)-Hydroxy-2-(6-methoxy-quinolin-4-yl)-ethyl]-3-(R/S)-ethoxycarbonyl-piperidin-4-(S/R)-ylamino}-N-phenyl-acetamide dioxalate]
≤ 2 mg/L	COc1ccc2nccc([C@@H](O)CN3CCC(NCC(=O)Nc4ccccc4)C(CO)C3)c2c1 (mixture of isomers) [Example 3, cis-2-{1-[2-(R)-Hydrxy-2-(6-methoxy-quinolin-4-yl)-ethyl]-3-(R/S)-hydroxymethyl-piperidin-4-(S/R)-ylamino}-N-phenyl-acetamide dioxalate]
≤ 2 mg/L	COc1ccc2nccc([C@@H](O)CN3CCC(NCC(=O)Nc4ccccc4)C(C(N)=O)C3)c2c1 (mixture of isomers) [Example 4, cis-2-{1-[2-(R)-Hydroxy-2-(6-methoxy-quinolin-4-yl)-ethyl]-3-(R/S)-aminocarbonyl-piperidin-4-(S/R)-ylamino}-N-phenyl-acetamide dioxalate]
≤ 32 mg/L	CCOC(=O)C1CN(C(=O)Nc2ccnc3ccc(OC)cc23)CCC1NCC(=O)Nc1ccccc1 (racemic) [Example 5, cis-3-(R/S)-Ethoxycarbonyl-4-(S/R)-(phenylcarbamoylmethyl-amino)-piperidine-1-carboxylic acid (6methoxy-quinolin-4-yl)-amide oxalate]
≤ 32 mg/L	COc1ccc2nccc(NC(=O)N3CCC(NCC(=O)Nc4ccccc4)C(CO)C3)c2c1 (racemic) [Example 6, cis-3-(R/S)-Hydroxymethyl-4-(S/R)-(phenylcarbamoylmethyl-amino)-piperidine-1-carboxylic acid (6-methoxy-quinolin-4-yl)-amide oxalate]
≤ 2 mg/L	COc1ccc2nccc(NC(=O)N3CCC(NCCCc4ccco4)C(CO)C3)c2c1 (racemic) [Example 53, cis-4-(S/R)-[3-(2-Furyl)-propyl]amino-3-(R/S)-hydroxymethyl-[6-methoxyquinolin-4-yl)]aminocarbonylpiperidine oxalate]
≤ 0.25 mg/L	COc1ccc2nccc([C@@H](O)CN3CCC(NCC(=O)Nc4ccccc4)CC3)c2c1 [Example 1, 2-{1-[(R)-2-Hydroxy-2-(6-methoxy-quinoin-4-yl)-ethyl]-piperidin-4-ylamino}-N-phenyl-acetamide dioxalate]
≤ 32 mg/L	COc1ccc2nccc([C@@H](O)CN3CCC(N(C)CC(=O)Nc4ccccc4)CC3)c2c1.O=C(O)C(=O)O.O=C(O)C(=O)O [Example 12, 2-{1-[(R)-2-Hydroxy-2-(6-methoxy-quinolin-4-yl)-ethyl]-piperidin-4-yl-N-methylamino}-N-phenyl-acetamide dioxalate]
≤ 0.25 mg/L	COc1ccc2nccc([C@@H](O)CN3CCC(NCC(=O)Nc4ccccn4)CC3)c2c1 [Example 13, 2-{1-[(R)-2-Hydroxy-2-(6-methoxy-quinolin-4-yl)-ethyl]-piperidin-4-ylamino}-N-pyridin-2-yl-acetamide dioxalate]
≤ 0.25 mg/L	COc1ccc2nccc([C@@H](O)CN3CCC(NCC(=O)Nc4ccc(F)c(F)c4)CC3)c2c1 [Example 17, N-(3,4-Difluoro-phenyl)-2-{1-[(R)-2-hydroxy-2-(6-methoxy-quinolin-4-yl-ethyl]-piperidin-4-ylamino)-acetamide dioxalate]
≤ 2 mg/L	COc1ccc2nccc([C@@H](O)CN3CCC(NCC(=O)Nc4ccc(Cl)c(Cl)c4)CC3)c2c1 [Example 18, N-(3,4-Dichloro-phenyl)-2-{1-[(R)-2-hydroxy-2-(6-methoxy-quinolin-4-yl-ethyl]-piperidin-4-ylamino)-acetamide dioxalate]
≤ 0.25 mg/L	COc1ccc2nccc([C@@H](O)CN3CCC(NCC(=O)Nc4ccccc4C#N)CC3)c2c1 [Example 19, N-(2Cyano-phenyl)-2-{1-[(R)-2-hydroxy-2-(6-methoxy-quinolin-4-yl-ethyl]-piperidin-4-ylamino)-acetamide dioxalate]
≤ 0.25 mg/L	COc1ccc2nccc([C@@H](O)CN3CCC(NCC(=O)Nc4ccccc4[N+](=O)[O-])CC3)c2c1 [Example 20, 2-{1-[(R)-2-Hydroxy-2-(6-methoxy-quinolin-4-yl-ethyl]-piperidin-4-ylamino}-N-(2nitro-phenyl)-acetamide dioxalate]
≤ 0.25 mg/L	COc1ccc2nccc([C@@H](O)CN3CCC(NCC(=O)Nc4cc(F)cc(F)c4)CC3)c2c1 [Example 29, N-(3,5-Difluoro-phenyl)-2-{1-[(R)-2-hydroxy-2-(6-methoxy-quinolin-4-yl)-ethyl]-piperidin-4-ylamino)-acetamide dioxalate]
≤ 32 mg/L	COc1ccc2nccc([C@@H](O)CN3CCC(NCC(=O)Nc4cccc(C#N)c4)CC3)c2c1 [Example 34, N-[3-Cyano-phenyl]-2-{1-[(R)-2-hydroxy-2-(6-methoxy-quinolin-4-yl)-ethyl]-piperidin-4-ylamino)-acetamide dioxalate]
≤ 32 mg/L	COc1ccc2nccc([C@@H](O)CN3CCC(NCC(=O)Nc4ccc(F)c([N+](=O)[O-])c4)CC3)c2c1 [Example 36, N-[4-Fluoro-3-nitro-phenyl]-2-{1-[(R)-2-hydroxy-2-(6-methoxyquinolin-4-ethyl]-piperidin-4-ylamino)-acetamide dioxalate]
≤ 32 mg/L	COC(=O)C1(NCC(=O)Nc2ccccc2)CCN(C[C@H](O)c2ccnc3ccc(OC)cc23)CC1.O=C(O)C(=O)O.O=C(O)C(=O)O [Example 37, 2-{1-[2-(R)-Hydroxy-2-(6-methoxy-quinolin-4-yl)-ethyl]-4-methoxycarbonyl-piperidin-4-ylamino)-N-phenyl-acetamide dioxalate]
≤ 2 mg/L	COc1ccc2nccc([C@@H](O)CN3CCC(CO)(NCC(=O)Nc4ccccc4)CC3)c2c1 [Example 38, 2-{1-[2-(R)-Hydroxy-2-(6-methoxy-quinolin-4-yl)-ethyl]-4-hydroxymethyl-piperidin-4-ylamino}-N-phenyl-acetamide dioxalate]
≤ 2 mg/L	COc1ccc2nccc([C@@H](O)CN3CCC(NCC(=O)Nc4ccc(F)cc4)CC3)c2c1 [Example 41, N-(4-Fluoro-phenyl)-2-{1-[(R)-2-hydroxy-2-(6-methoxy-quinlin-4-yl)-ethyl]-piperidin-4-ylamino}-acetamide dioxalate]
≤ 2 mg/L	COc1ccc2nccc(CCN3CCC(NCC(=O)Nc4ccc(F)cc4)CC3)c2c1 [Example 42, N-(4-Fluoro-phenyl)-2-{1-[2-(6-methoxy-quinolin-4-yl)-ethyl]-piperidin-4-ylamino}-acetamide dioxalate]
≤ 0.25 mg/L	COc1ccc2nccc([C@@H](O)CN3CCC(NC/C=C/c4ccccc4[N+](=O)[O-])CC3)c2c1 [Example 54, 4-[trans-1-(2-Nitrophenyl)-3-propeny]amino-1-[2-(R)-hydroxy-2-(6-methoxyquinolin-4-yl)]ethylpiperidine dioxalate]
≤ 2 mg/L	COc1ccc2nccc([C@@H](O)CN3CCC(NC(=O)/C=C/c4ccco4)CC3)c2c1 [Example 72, (E)-3-Furan-2-yl-N-{1-[(R)-2-hydroxy-2-(6-methoxyquinolin-4-yl)-ethyl]-piperidin-4-yl}-acrylamide oxalate]
≤ 0.25 mg/L	COc1ccc2nccc([C@@H](O)CN3CCC(NC/C=C/c4nccs4)CC3)c2n1 [Example 73, 4-[trans-1-(2-Thiazolyl)-3-propenyl]amino-1-[2-(R)-hydroxy-2-(6-methoxy-[1,5]-naphthyridin-4-yl)]ethylpiperidine dimethanesulphonate]
≤ 0.25 mg/L	COc1cc(F)c2nccc([C@@H](O)CN3CCC(NCCOc4ccccn4)CC3)c2c1 [Example 74, 4-[2-(Pyridin-2-yloxy)-ethylamino]-1-[2-(R)-hydroxy-2-(8-fluoro-6-methoxyquinolin-4-yl)]ethylpiperidine dioxalate]
≤ 32 mg/L	COc1ccc2nccc([C@@H](O)CN3CCC(NCCCn4cc(F)c(=O)[nH]c4=O)CC3)c2c1 [Example 75, 5-Fluoro-1-(3-{1-[(R)-2-hydroxy-2-(6-methoxy-quinolin-4-yl)-ethyl]piperidin-4-ylamino}-propyl)-1H-pyrimidine-2,4-dione dioxolate]
